Source: patent publication US20170306385A1, “METHODS FOR DISCOVERING THERAPEUTICS THAT ALTER THE STABILITY OF TARGET PROTEINS” (Dana-Farber Cancer Institute, Inc., priority 2014, published 2017)
Where a SMILES comes first, the peptide text is derived from it. The star is where a group is joined. Cbz = O=C(OCc1ccccc1)*

How the values were obtained:
Format in all cases: cell-based
fusion protein = test: Western blot confirmation of fusion protein reduction by HSP90 inhibitors
[1] = system: unfused luciferases (renilla and firefly); test: Stability time course for 7 MYC-luciferase fusion cell lines, unfused (untagged) luciferase
Method: (§1) Seven cell lines were used to measure the half life of the luciferases after blocking all protein synthesis with cyclohexamide. The decay observed for both fused luciferases (MYC-firefly and MYC-nanoluc; FIG. 12B) were compared to the decay observed for the unfused luciferases (renilla and firefly; FIG. 12A) using both the MYC-firefly:renilla and MYC-nanoluc:firefly cell lines 293T, U2OS and the MYC-firefly:renilla cell lines A549, H1299 and LS174T. […] MYC nanoluc half life of approximately 2 hours is longer than MYC-firefly half-life of less than 1 hour and closer to the half-life of untagged firefly. The balanced half-life of MYC-nanoluc and untagged firefly should reduce the number of artefact hits.
(§2) Seven MYC-luciferase reporter cell lines were used to measure changes in MYC-luciferase expression after blocking the proteasome with MG132. The expression of the unfussed renilla and firefly were unchanged for about 6 hours but decreased after 18 hours to a variable extent among cell lines (FIG. 13B).
(§3) Seven MYC-luciferase reporter cell lines were used to measure changes in MYC-luciferase expression after inhibition of ubiquitin dependent proteolysis with the neddylation inhibitor MLN-4924 (FIG. 14A-B).

[2] = system: MYC-luciferase fusion protein; test: Stability time course for 7 MYC-luciferase fusion cell lines, fused (tagged) luciferase; conditions: for increase in MYC-luciferase fusion protein: all 7 cell lines
Method: as §1, §2, §3

For COc1c(C)cnc(Cn2cnc3c(Cl)nc(N)nc32)c1C [BIIB021], the “knockdown of protein levels by western blot” value (fusion protein) was “confirmed”.

NS(=O)(=O)OC[C@@H]1C[C@@H](n2ccc3c(N[C@H]4CCc5ccccc54)ncnc32)C[C@@H]1O [MLN-4924] was tested, and the “expression of unfused renilla and firefly” value (from here on “expression”) ([1]; MLN-4924, except for the 293T MYC-firefly:renilla cell line) was “minimally affected” and the “increase in MYC-luciferase fusion protein” value ([2]; MLN-4924, typically peaking after 6 hours of treatment) was at least 50%.

With CC(C)C[C@@H](C=O)NC(=O)[C@H](CC(C)C)NC(=O)[C@H](CC(C)C)NC(=O)OCc1ccccc1 [MG132] (Cbz-Leu-Leu-Leu-aldehyde) the “expression” value ([1]; MG132, after 18 hours, variable extent among cell lines) was “decreased”, the “expression” value ([1]; MG132, for about 6 hours) was “unchanged” and the “increase in luciferase signals of MYC-nanoluc” value ([2]; MYC-nanoluc cell lines, MG132) was “about 4 fold”. For the same compound, the “increase in MYC-luciferase fusion protein” value ([2]; proteasome blocked with MG132, different time course) was at least 50%.

For CC1(C)CC(=O)c2c(C(F)(F)F)nn(-c3ccc(C(N)=O)c(N[C@H]4CC[C@H](OC(=O)CN)CC4)c3)c2C1 [PF-04929113], the “knockdown of protein levels by western blot” value (fusion protein) was “confirmed”.
